Experiments:
[1] = tested on: Bell's Palsy; conditions: prednisolone 60 mg per day for 5 days then reduced by 10 mg per day, and 50 mg per day for 10 days; cited from earlier work
[2] = tested on: Bell's Palsy; assay: Example 1: treatment of person suffering from Bell's Palsy; type: in vivo, human; conditions: 60 mg/day prednisone therapy alone, two weeks
Protocol: The patient, a person was diagnosed by their doctor after claiming they are suffering from unexplained facial weakness. The patient's doctor diagnosed the patient as suffering from Bell's Palsy. […] Two weeks after administration, the patient is co-administered a single dose of IVIG at 2 g/kg and 60 mg prednisone and Bell's Palsy related symptoms the patient suffered from are reduced by 70% within two weeks from the co-administration.

[3] = tested on: Bell's Palsy; assay: Example 2: treatment of a person suffering from Bell's Palsy; type: in vivo, human; conditions: 60 mg/day prednisone therapy alone for a month
Protocol: The patient, a person is diagnosed by their doctor as suffering from Bell's Palsy. […] The patient is then administered IVIG at 2 g/kg and 60 mg prednisone. Within three weeks, the Bell's Palsy is resolved by about 80%. The patient is then administered a second dose of IVIG at 2 g/kg and 60 mg. prednisone. Within two weeks, the patient is resolved by about 95%.

SMILES | outcome in patients with Bell's palsy [1] | time to complete recovery [1] | reduction in the symptoms of Bell's Palsy [2] | resolution of Bell's Palsy [3]
C[C@]12C=CC(=O)C=C1CC[C@@H]1[C@@H]2[C@@H](O)C[C@@]2(C)[C@H]1CC[C@]2(O)C(=O)CO [prednisolone] | improves outcome | shortens the time to complete recovery | – | –
C[C@]12C=CC(=O)C=C1CC[C@@H]1[C@@H]2C(=O)C[C@@]2(C)[C@H]1CC[C@]2(O)C(=O)CO [prednisone] | – | – | no reduction | did not resolve
